In patent publication US20070059632A1, “Method of manufacturing a semiconductor device” (priority 2003, published 2007):

What was measured:
Format in all cases: physicochemical
[1] = Inhibition of dissolution in alkali developing solution; parameters: key: A: no change was visually noticed in the state of film; C: the surface was roughened or a part of the film was lost because of dissolution; conditions: resist film immersed in 2.38% aqueous solution of TMAH for 3 min
Method: (3) Inhibition of Dissolution in Alkali Developing Solution
The resist film formed in the evaluation 2 was immersed in a developing solution (2.38% aqueous solution of TMAH) for 3 min. The results were rated as “A” when no change was visually noticed in the state of film, and “C” when the surface was roughened or a part of the film was lost because of dissolution.

[2] = Alkali developability; parameters: key: A: the resist film dissolved completely and disappeared; C: the resist film remained not dissolved even in a slight amount; conditions: tested on the corresponding polyphenol compound A before introducing the acid-dissociating group; film immersed in 2.38% aqueous TMAH for 10 s
Method: (5) Alkali Developability
A polyphenol compound A corresponding to each compound before introducing the acid-dissociating functional group was examined for its developability with an alkali developing solution.
A 10% by weight solution of each polyphenol compound A in PGMEA was spin-coated using a spin coater, to form a resist film of about 0.2 μm thick. After heating on a hot plate for 3 min at 110° C., the resist film was immersed in a 2.38% aqueous solution of TMAH for 10 s. The results were rated as “A” when the resist film dissolved completely and disappeared, and “C” when the resist film remained not dissolved even in a slight amount.

[3] = Solubility of compound in safety solvent; conditions: safety solvent (PGMEA or EL) at 23° C.
Method: (1) Solubility of Compound in Safety Solvent
Each compound was tested for its solubility in safety solvent (PGMEA or EL) at 23° C. The solubility was rated as “A” when dissolved in an amount of 5% by weight or more, “B” when dissolved in an amount of 0.1% by weight or more but less than 5% by weight, and “C” when not dissolved in an amount of 0.1% by weight or more.

| Structure (SMILES) | (3) Inhibition of dissolution in developing solution [1] | (5) Alkali developability [2] | (1) Solubility in safety solvent [3] |
| --- | --- | --- | --- |
| O=C1c2cccc3cccc(c23)C1(c1ccc(O)cc1)c1ccc(OC2CCCCO2)cc1 (stereo not drawn) [Compound 8-2] | A | A | A (dissolved in an amount of 5% by weight or more) |
| O=C1c2ccccc2C(c2ccc(O)cc2)(c2ccc(OC3CCCCO3)cc2)c2ccccc21 (stereo not drawn) [Compound 7-5] | A | A | A (dissolved in an amount of 5% by weight or more) |
| CC(C)(C)OC(=O)Oc1cc(C2(c3ccc(OC(=O)OC(C)(C)C)c(OC(=O)OC(C)(C)C)c3)c3ccccc3-c3ccccc32)ccc1O [Compound 7-2] | A | A | A (dissolved in an amount of 5% by weight or more) |
| CC(C)(C)OC(=O)Oc1ccc(C(c2ccc(O)cc2)c2cccc3ccccc23)cc1 (stereo not drawn) [Compound 5-9] | A | A | A (dissolved in an amount of 5% by weight or more) |
| CCCCOC(=O)Oc1ccc2c(c1)Oc1cc(OC(=O)OCCCC)ccc1C2c1ccc(-c2ccccc2)cc1 [Compound 10-1] | A | A | A (dissolved in an amount of 5% by weight or more) |
| Oc1ccc(C2(c3ccc(OC4CCCCO4)cc3)Cc3cccc4cccc2c34)cc1 (stereo not drawn) [Compound 8-1] | A | A | A (dissolved in an amount of 5% by weight or more) |
| Oc1ccc(C(c2ccc(OC3CCCCO3)cc2)c2ccc(-c3ccccc3)cc2)cc1 (stereo not drawn) [Compound 6-1] | A | A | A (dissolved in an amount of 5% by weight or more) |
| Oc1ccc2c(c1)Oc1cc(OC3CCCCO3)ccc1C2c1ccc(-c2ccccc2)cc1 (stereo not drawn) [Compound 10-2] | A | A | A (dissolved in an amount of 5% by weight or more) |
| CC1(c2ccc3ccccc3c2)c2ccc(O)cc2Oc2cc(OC3CCCCC3)ccc21 (stereo not drawn) [Compound 9-1] | A | A | A (dissolved in an amount of 5% by weight or more) |
| Oc1ccc(C2(c3ccc(OC4CCCCO4)cc3)c3ccccc3-c3ccccc32)cc1 (stereo not drawn) [Compound 7-4] | A | A | A (dissolved in an amount of 5% by weight or more) |
| CC(C)(C)OC(=O)Oc1ccc(C(C)(c2ccc(O)cc2)c2ccc3ccccc3c2)cc1 (stereo not drawn) [Compound 5-8] | A | A | A (dissolved in an amount of 5% by weight or more) |
| CCOC(C)Oc1ccc(C(C)(c2ccc(O)c(C3CCCCC3)c2)c2ccc3ccccc3c2)cc1C1CCCCC1 (stereo not drawn) [Compound 5-7] | A | A | A (dissolved in an amount of 5% by weight or more) |
| CCOC(C)Oc1ccc(C2(c3ccc(O)c(-c4ccccc4)c3)Cc3cccc4cccc2c34)cc1-c1ccccc1 (stereo not drawn) [Compound 8-5] | A | A | A (dissolved in an amount of 5% by weight or more) |
| Cc1cc(C(C)(c2ccc(OC(=O)OC(C)(C)C)c(C)c2)c2ccc3ccccc3c2)ccc1OC(=O)OC(C)(C)C [Compound 5-1] | A | A | A (dissolved in an amount of 5% by weight or more) |
| CC(C)(C)OC(=O)Cc1cc(C(C)(c2ccc(OC(=O)OC(C)(C)C)c(OC(=O)OC(C)(C)C)c2)c2ccc3ccccc3c2)ccc1OC(=O)OC(C)(C)C (stereo not drawn) [Compound 5-3] | A | A | A (dissolved in an amount of 5% by weight or more) |
| Cc1cc(C(C)(c2ccc(OC3CCCCO3)c(C)c2)c2ccc3ccccc3c2)ccc1O (stereo not drawn) [Compound 5-6] | A | A | A (dissolved in an amount of 5% by weight or more) |
| CCOC(C)Oc1ccc(C2(c3ccc(O)c(C4CCCCC4)c3)Cc3cccc4cccc2c34)cc1C1CCCCC1 (stereo not drawn) [Compound 8-3] | A | A | A (dissolved in an amount of 5% by weight or more) |
| CC(C)(C)OC(=O)Cc1cc(C2(c3cc(OC(=O)OC(C)(C)C)c(OC(=O)OC(C)(C)C)c(OC(=O)OC(C)(C)C)c3)c3ccccc3-c3ccccc32)cc(OC(=O)OC(C)(C)C)c1OC(=O)OC(C)(C)C [Compound 7-3] | A | A | A (dissolved in an amount of 5% by weight or more) |
| CC(C)(C)OC(=O)Oc1ccc(C2(c3ccc(OC(=O)OC(C)(C)C)c(OC(=O)OC(C)(C)C)c3)c3ccccc3-c3ccccc32)cc1OC(=O)OC(C)(C)C [Compound 7-1] | A |  | B (dissolved in an amount of 0.1% by weight or more but less than 5% by weight) |
| Cc1cc(C(C)(c2ccc(OC(C)OC3CCCCC3)c(C)c2)c2ccc3ccccc3c2)ccc1O (stereo not drawn) [Compound 5-5] | A | A | A (dissolved in an amount of 5% by weight or more) |
| CCOC(C)Oc1ccc(C(C)(c2ccc(O)c(C)c2)c2ccc3ccccc3c2)cc1C (stereo not drawn) [Compound 5-4] | A | A | A (dissolved in an amount of 5% by weight or more) |
| CC(C)(C)OC(=O)Oc1ccc(C2(c3ccc(OC(=O)OC(C)(C)C)cc3)C(=O)c3cccc4cccc2c34)cc1 [Compound 8-4] | A | A | A (dissolved in an amount of 5% by weight or more) |

Further lines, with some results ahead:

| (3) Inhibition of dissolution in developing solution [1] | (5) Alkali developability [2] | Structure (SMILES) | (1) Solubility in safety solvent [3] |
| --- | --- | --- | --- |
| A | A | CCOC(C)Oc1ccc2c(c1)Oc1cc(O)ccc1C21Cc2cccc3cccc1c23 (stereo not drawn) [Compound 12-1] | A (dissolved in an amount of 5% by weight or more) |
|  | A | CC(C)(C)OC(=O)Oc1ccc(C2(c3ccc(OC(=O)OC(C)(C)C)cc3)CCCCC2)cc1 [Compound 14-2, reference compound] | C (not dissolved in an amount of 0.1% by weight or more) |
|  | A | CC(C)(C)OC(=O)Oc1ccc(C(C)(C)c2ccc(OC(=O)OC(C)(C)C)cc2)cc1 [Compound 14-1, reference compound] | C (not dissolved in an amount of 0.1% by weight or more) |
| A | A | CC(C)(C)OC(=O)Oc1ccc2c(c1)Oc1cc(OC(=O)OC(C)(C)C)ccc1C21c2ccccc2-c2ccccc21 [Compound 11-2] | B (dissolved in an amount of 0.1% by weight or more but less than 5% by weight) |
| A | A | CC(C)(C)OC(=O)Oc1ccc(C(c2ccc(OC(=O)OC(C)(C)C)cc2)c2ccc(OC(=O)OC(C)(C)C)cc2)cc1 [Compound 14-3, reference compound] | A (dissolved in an amount of 5% by weight or more) |
| A | A | CC(C)(C)OC(=O)Oc1ccc(-c2cc(-c3ccc(OC(=O)OC(C)(C)C)cc3)cc(-c3ccc(OC(=O)OC(C)(C)C)cc3)c2)cc1 [Compound 14-4, reference compound] | A (dissolved in an amount of 5% by weight or more) |
| C | A | Cc1cc(C(C)(c2ccc(O)c(C)c2)c2ccc3ccccc3c2)ccc1O [Compound 14-5, 1-(2-naphthyl)-1,1-bis(3-methyl-4-hydroxyphenyl)ethane, reference compound] | A (dissolved in an amount of 5% by weight or more) |
| A | A | CCOC(C)Oc1ccc2c(c1)Oc1cc(O)ccc1C21c2ccccc2-c2ccccc21 (stereo not drawn) [Compound 11-3] | A (dissolved in an amount of 5% by weight or more) |
| A | A | CC(C)(C)OC(=O)Oc1ccc2c(c1)Oc1cc(O)ccc1C21c2ccccc2-c2ccccc21 [Compound 11-1] | A (dissolved in an amount of 5% by weight or more) |
